From patent US10478421B1, “Sortilin binding compounds, formulations, and uses thereof” (University of Florida, priority 2016, dated 2019)

Columns and labels:
hsortilin = biological target: T1, hsortilin (Homo sapiens, UniProt Q99523); test: Surface plasmon resonance on hsortilin immobilized on CM7 chips (Example 2); format: binding
T1 construct: Human sortilin (hsortilin) (Ser78-Asn755) with C-terminal 6-His tag; purchased R&D Systems, Inc. (Minneapolis, Minn.)
T1 sequence (Q99523 78-755): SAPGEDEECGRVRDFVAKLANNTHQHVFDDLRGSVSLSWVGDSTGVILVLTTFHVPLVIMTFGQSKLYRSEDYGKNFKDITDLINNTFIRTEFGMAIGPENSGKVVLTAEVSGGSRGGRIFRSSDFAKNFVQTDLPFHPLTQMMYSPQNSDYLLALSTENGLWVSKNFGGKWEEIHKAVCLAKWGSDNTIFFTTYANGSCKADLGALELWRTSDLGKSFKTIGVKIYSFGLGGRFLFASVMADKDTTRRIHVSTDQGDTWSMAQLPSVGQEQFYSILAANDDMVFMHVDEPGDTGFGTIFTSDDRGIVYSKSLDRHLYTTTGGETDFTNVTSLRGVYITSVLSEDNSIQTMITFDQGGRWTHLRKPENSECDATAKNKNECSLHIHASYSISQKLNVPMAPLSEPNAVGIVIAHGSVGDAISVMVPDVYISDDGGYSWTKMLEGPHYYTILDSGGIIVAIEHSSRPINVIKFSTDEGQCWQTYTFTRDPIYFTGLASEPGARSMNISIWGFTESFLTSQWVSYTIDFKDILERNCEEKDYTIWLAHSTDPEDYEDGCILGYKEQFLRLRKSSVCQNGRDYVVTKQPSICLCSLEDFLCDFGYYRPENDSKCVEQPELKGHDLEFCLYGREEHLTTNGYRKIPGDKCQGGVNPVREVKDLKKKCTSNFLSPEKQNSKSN
Method: Surface plasmon resonance (SPR) measurements were performed on a Biacore T200 instrument equipped with two separate CM7 sensor chips, one with about 20,000 response units (RU) and another with about 27,000 RU of hsortilin covalently immobilized. […] For all other SPR injections, regeneration consisted of injections of running buffer alone. GE BIAcore T200 evaluation software version 3.0 (BIAevaluate) was used to analyze and export results. […] PIP3 containing nanodiscs were flowed at 2:1 dilutions to obtain kinetic data fitted using about 27,000 RU CM7 surface. Kinetic fit generated with BIAevaluate and local Rmax using Langmuir 1:1 binding model exported from BIAevaluate to Microsoft Excel 2016 with fit indicated by the black line.

McArdle rat hepatocytes = test: VLDL-apo E secretion by McArdle rat hepatocytes (slot blotting); format: cell-based; settings: 0.1-25 μM, 14-18 h
Method: McArdle rat hepatocytes were incubated with five media concentrations 0 (no cpd), 1 (0.1 μM), 2 (1 μM), 3 (10 μM) and 4 (25 μM) of cpd984 (FIG. 7A), cpd541 (FIG. 7B), or with a combination of both compounds (FIG. 7C) at indicated concentrations. Hepatocytes were incubated overnight (14-18 h) and media were collected and VLDL-B100 and VLDL-apo E were detected by slot blotting as described above. An anti-rat apoE antibody was used for measurement of VLDL-apo E secretion. Results are the average of triplicate analysis in one study.

McA cells = test: LDH release into medium (viability of McA cells); format: cell-based, rat; settings: incubation with compound (10 μM cpd984, 18 h)

effect on NT binding to hsortilin by SPR (hsortilin)	increase of binding of C-term NT (SITE 1) to hsortilin when incubated with 984 (hsortilin)	Structure (SMILES)	effect on VLDL-apoE secretion (McArdle rat hepatocytes)	LDH release / toxicity (McA cells)	LDH release / toxicity (McA cells; listed as 984)
enhances NT binding	100 fold	CN1CCC[C@H]1C(=O)Nc1cccc(NC(=O)CCc2ccccc2)c1 [cpd984, (2S)-1-methyl-N-{3-[(3-phenylpropanoyl)-amino]phenyl} pyrrolidine-2-carboxamide]	increases	no significant release of LDH	non-toxic
competes for NT binding	–	CC(NC(=O)c1ccccc1NCC(=O)O)c1ccccc1 (centres unmarked) [cpd541]	decreases	non-toxic	–
